Test results from PMC6235670, “An mTOR Signaling Modulator Suppressed Heterotopic Ossification of Fibrodysplasia Ossificans Progressiva” (Stem Cell Reports, 2018).

Experiments:
FOP-iMSCs = assay: Microarray / pathway analysis of activin A-induced chondrogenesis of FOP-iMSCs; assay type: cell-based, human; settings: 100 nM, activin A, 7 days
Method: Microarray experiments. 2D chondrogenic induction was performed in FOP-iMSCs stimulated with or without 100 ng/mL Activin-A, TAK 165, CP-724714 and Lapatinib. Seven days after incubation, mRNA was extracted. RNA was reverse transcribed, biotin-labeled and hybridized to GeneChip Human Gene 1.0 ST Expression Array, which was subsequently washed and scanned according to the manufacturer’s instructions (Affymetrix). Raw CEL files were imported into GeneSpring GX 12.6.1 software (Agilent Technologies), and expression values were calculated with the RMA16 algorithm. Pathway analysis was performed by Ingenuity pathway analysis (Qiagen). […]

ATDC5/FOP-ACVR1 cells = assay: ALP assay (HTS and dose-response) in ATDC5/FOP-ACVR1; assay type: cell-based, mouse; settings: Mus musculus, same protocol as HTS (72 h)
[1] = AlamarBlue viability assay in ATDC5/FOP-ACVR1; settings: mouse
Method: Generation of ATDC5 stably expressing ACVR1. WT - or FOP-ACVR1 was inserted into doxycycline (Dox)- […]
(KW111/WT-ACVR1 or KW111/FOP-ACVR1). KW111/WT-ACVR1 or KW111/FOP-ACVR1 and PBaseII […]
FuGeneHD® (Promega) according to the manufacturer’s protocol, and the neomycin- resistant population (500 µg/mL) was selected. Further selection was performed by selecting a mCherry high positive population (< 5%) after six hours of Dox treatment, sorting it with fluorescent-activated cell sorting (FACS) using AriaII (BD) according to the manufacturer’s protocol, and designating it as ATDC5/WT-ACVR1 or ATDC5/FOP-ACVR1.
KW111 included PB, active transposable PB elements; TRE-mCMVP, Tetracycline Response Element and a minimal CMV promoter; rtTA, reverse tetracycline-controlled transactivator. PBaseII was an expression plasmid vector containing the PB transposase cDNA with optimized codon usage to human under the control […]
HTS campaign and follow-up screens. ATDC5/FOP-ACVR1 cells were plated in 96-well white plates (2,000 cells/well/40 µ L, Corning) in DMEM/F-12 supplemented with 5% (v/v) FBS. […]
37 °C under 5% CO2. After 3 days incubation, Alkaline Phosphatase activity (ALP) or AlamarBlue activity was measured using Amplite™ Colorimetric Alkaline Phosphatase Assay Kit (AAT Bioquest) or alamarBlue® Cell Viability Reagent (Thermo Fisher Scientific) according to the manufacturer’s protocol, respectively. T h e […]
was measured on POWERSCAN4 (DS Pharma Biomedical) or EnVision® Multilabel Reader (PerkinElmer).
Inhibitory effects of the screened compounds are given as percent inhibition, which was calculated using the following equation: (1-([Abs of compound] - [Abs of Min])/([Abs of Max] - [Abs of Min]))× 100, where [Abs of Max] and [Abs of Min] are the mean Abs of DMSO control and 1 µM DMH-1, respectively. The Z’ factor, which is widely used as a measure of the assay quality of each plate, was calculated using the following equation: Z’ factor = 1 - 3 × ([SD of Max] + [SD of Min])/([Abs of Max] - [Abs of Min]) (SI Appendix, Fig.
The S/B (signal-to-background) ratio was calculated using the following equation: ([Abs of Max]/[Abs of Min]) (SI Appendix, Fig. S3B).
Using ATDC5/FOP-ACVR1 cells, we performed a first screening (n=2; test compounds = 1 µM, Fig. […]

mTOR signaling (p-S6) = assay: p-S6 western blotting in FOP-iMSCs cultured with 10% FBS; assay type: cell-based, human; settings: 100 nM, 2 hr
Method: time point t = 24 h from t = 0 h, and relative cell migration was expressed as the ratio of the absolute cell migrations between the experimental and control groups by using CL-Quant software (Nikon Corp.).
Quantitative PCR analysis. Total RNA was purified with RNeasy Kit (Qiagen) and treated with DNase -one Kit (Qiagen) to remove genomic DNA. Total RNA (0.3 µg) was reverse transcribed for single-stranded cDNA using random primers and Superscript III reverse transcriptase (Thermo Fisher Scientific) according to the manufacturer’s instructions. Quantitative PCR was performed with Thunderbird SYBR qPCR Mix (TOYOBO) and analyzed with the StepOne real-time PCR system (Applied Biosystems). […]
Microarray experiments. 2D chondrogenic induction was performed in FOP-iMSCs stimulated with or without 100 ng/mL Activin-A, TAK 165, CP-724714 and Lapatinib. […] Raw CEL files were imported into GeneSpring GX 12.6.1 software (Agilent Technologies), and expression values were calculated with the RMA16 algorithm. […]
Protein bands were detected with ECL Prime Western Blotting Detection Reagent (GE Healthcare) and visualized using BIO-RAD Molecular Imager® Chemi-DocTM XRS+ with Image LabTM software (Bio-Rad). […]
GAG value. The GAG content was quantified in pellets with the Blyscan Glycosaminoglycan Assay Kit (Biocolor). The DNA content was quantified using PicoGreen dsDNA Quantitation Kit (Thermo Fisher […]

FC(F)(F)c1ccc(/C=C/c2nc(COc3ccc(CCCCn4ccnn4)cc3)co2)cc1 [TAK 165, mubritinib]
transcriptome: genes involved in chondrogenesis or osteogenesis (FOP-iMSCs): affected genes that are involved in chondrogenesis or osteogenesis
IC50 (ATDC5/FOP-ACVR1 cells): 39 nM
viability at 3 days, 10 µM [1]: 117%
p-S6 levels (direct mTOR inhibition) (mTOR signaling (p-S6)): did not
